This is an account of results in ChEMBL document CHEMBL4229543, “Squaramides as novel class I and IIB histone deacetylase inhibitors for topical treatment of cutaneous t-cell lymphoma” (Bioorg Med Chem Lett, 2018).

pEC50, pKi: −log10 of the molar value. ≈ marks a conversion by molar mass, not a printed value.

As a reminder, the solubility is how much of the substance goes into solution per volume. A lower solubility goes with a poorly soluble substance. In general, pKi refers to the Ki on a negative log10 scale, so that one unit is a factor of ten. Broadly, the pEC50 is the negative decadic logarithm of the EC50, by convention in mol/L.

The nature of data set [1]: Solubility in pH 7.4 phosphate buffer solution at 100 uM after 24 hrs by HPLC method. The class given is physicochemical. Conditions: phosphate buffer, pH 7.4.
For data set [2], the target named is Histone deacetylase 1 (Homo sapiens, UniProt Q13547). The data set can be described thus: Inhibition of human recombinant HDAC1 using Fluor de Lys as substrate after 2 hrs by fluorescence method.
For data set [3], the system named is HuT78. The data set can be described thus: Pro-apoptotic activity in human HUT78 cells after 18 hrs by caspase-Glo 3/7 assay. To be noted: HuT78, 18 h. The data set is classed as functional, cell-based.
Data set [4] can be described thus: Solubility in PG/EtOH (96%) at 30 mg/mL after 24 hrs by UV-spectrometric method. The data set is classed as physicochemical. Conditions: for solubility at 24 h: PG/EtOH (96%).
The nature of data set [5]: Clearance in human hepatocytes assessed per million cells at 1 uM after 5 to 90 mins by LC-MS/MS analysis. The class given is ADME, cell-based, Hepatocyte. Conditions: read-out: CLH.

Sequence of Histone deacetylase 1 (Q13547 whole entry): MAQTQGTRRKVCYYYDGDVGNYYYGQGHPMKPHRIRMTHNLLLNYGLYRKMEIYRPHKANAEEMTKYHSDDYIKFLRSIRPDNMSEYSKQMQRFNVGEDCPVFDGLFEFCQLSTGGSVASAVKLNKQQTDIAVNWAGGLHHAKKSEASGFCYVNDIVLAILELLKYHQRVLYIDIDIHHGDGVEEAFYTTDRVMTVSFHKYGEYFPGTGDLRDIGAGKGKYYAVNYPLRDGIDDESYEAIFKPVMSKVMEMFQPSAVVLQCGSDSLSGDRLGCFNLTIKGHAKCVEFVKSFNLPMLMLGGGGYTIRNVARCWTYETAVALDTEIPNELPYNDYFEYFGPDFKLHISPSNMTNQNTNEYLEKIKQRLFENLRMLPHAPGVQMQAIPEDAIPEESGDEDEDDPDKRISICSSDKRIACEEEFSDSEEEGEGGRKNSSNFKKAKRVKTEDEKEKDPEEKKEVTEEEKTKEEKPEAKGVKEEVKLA

The molecule `O=C(CCCCCNc1c(Nc2ccc(C(F)(F)F)cc2)c(=O)c1=O)NO` gave a solubility at 24 h, 100 µM in data set [1] of 4.5 µM (≈ 1.73 µg/mL). For the same molecule, the pKi in data set [2] was 9.64. The same molecule had a pEC50 in data set [3] of 8.40. In data set [4], this molecule registered a solubility at 24 h of 4700 µM (≈ 1810 µg/mL). Also, in data set [5], the hepatocyte CLint at 1 µM came out at 11 µL/min/1e6 cells.
Turning to `COc1ccc(Nc2c(NC(C)(C)CCCCC(=O)NO)c(=O)c2=O)cc1`, in data set [1], the solubility at 24 h, 100 µM stood at 99 µM (≈ 37.2 µg/mL). Besides, the negative-log Ki (pKi) in data set [2] was 10.25. In data set [3], this molecule gave a pEC50 of 8.26. Besides, in data set [5], the hepatocyte CLint at 1 µM came to 9.2 µL/min/1e6 cells.
In turn, `Cc1cccc(Nc2c(NCCCCCC(=O)NO)c(=O)c2=O)c1` had a solubility at 24 h, 100 µM in data set [1] of 79 µM (≈ 26.2 µg/mL). For the same molecule, the negative logarithm of the Ki (pKi) in data set [2] was 9.41. Also, the pEC50 in data set [3] is 7.59. This molecule also displayed a solubility at 24 h in data set [4] of 11000 µM (≈ 3650 µg/mL). In addition, the hepatocyte CLint at 1 µM in data set [5] was 18 µL/min/1e6 cells.
`COc1ccc(Nc2c(NC3(CCCCC(=O)NO)CCC3)c(=O)c2=O)cc1` registered a solubility at 24 h, 100 µM in data set [1] of 82 µM (≈ 31.8 µg/mL). The pKi in data set [2] is 10.20. For the same molecule, in data set [3], the pEC50 was 7.92. Further, in data set [5], the hepatocyte CLint at 1 µM came to 17 µL/min/1e6 cells.
In turn, `O=C(CCCCNc1c(Nc2ccccc2)c(=O)c1=O)NO` came in with a solubility at 24 h, 100 µM in data set [1] of 87 µM (≈ 26.4 µg/mL). Moreover, the negative-log Ki (pKi) in data set [2] is 7.92. Further, the pEC50 in data set [3] was 6.54. The concentration in solution in data set [4] (solubility at 24 h) was 32000 µM (≈ 9710 µg/mL). Moreover, the hepatocyte CLint at 1 µM in data set [5] is below 5 µL/min/1e6 cells.
The like results for `C[C@H](CCCCC(=O)NO)Nc1c(Nc2ccc(OC(F)(F)F)cc2)c(=O)c1=O` were, in that order, 27 µM (≈ 11.2 µg/mL), 9.24, 8.00, 70000 µM (≈ 29100 µg/mL) and 31 µL/min/1e6 cells.
The like results for `C[C@@H](CCCCC(=O)NO)Nc1c(Nc2ccc(N(C)C)cc2)c(=O)c1=O` were, in that order, 89 µM (≈ 33.3 µg/mL), 8.37, 7.36, 28000 µM (≈ 10500 µg/mL) and 3.6 µL/min/1e6 cells.
In the same order, the values of `O=C(CCCCCNc1c(NCc2ccccc2)c(=O)c1=O)NO` are 75 µM (≈ 24.9 µg/mL), 8.14, 6.57, 5700 µM (≈ 1890 µg/mL) and below 4.8 µL/min/1e6 cells.
In data set [1], `C[C@H](Nc1c(NCCCCCC(=O)NO)c(=O)c1=O)c1ccccc1` returned a solubility at 24 h, 100 µM of 73 µM (≈ 25.2 µg/mL). For the same molecule, the pKi in data set [2] was 8.60. Also, the pEC50 in data set [3] was 6.66. The solubility at 24 h in data set [4] stood at 28000 µM (≈ 9670 µg/mL). Further, in data set [5], the hepatocyte CLint at 1 µM is below 5 µL/min/1e6 cells.
Molecule `CC(C)C(CCCCC(=O)NO)Nc1c(Nc2ccc(C(F)(F)F)cc2)c(=O)c1=O` (racemic) came in with a solubility at 24 h, 100 µM in data set [1] of 5.3 µM (≈ 2.27 µg/mL). In addition, the pKi in data set [2] was 7.92. Also, the pEC50 in data set [3] is 6.55. In addition, the solubility at 24 h in data set [4] amounted to 6300 µM (≈ 2690 µg/mL). Moreover, the hepatocyte CLint at 1 µM in data set [5] was 27 µL/min/1e6 cells.
The like results for `CC(CCCCC(=O)NO)Nc1c(Nc2ccc(C(F)(F)F)cc2)c(=O)c1=O` (racemic) were, in that order, 30 µM (≈ 12 µg/mL), 9.55, 7.74, 20000 µM (≈ 7990 µg/mL) and 21 µL/min/1e6 cells.
The like results for `CC[C@H](Nc1c(NCCCCCC(=O)NO)c(=O)c1=O)c1ccccc1` were, in that order, 75 µM (≈ 27 µg/mL), 8.03, 6.77, 57000 µM (≈ 20500 µg/mL) and below 5 µL/min/1e6 cells.
In the same order, the values of `C[C@H](CCCCC(=O)NO)Nc1c(Nc2ccc3cc(C(F)(F)F)[nH]c3c2)c(=O)c1=O` are 10 µM (≈ 4.38 µg/mL), 9.82, 8.14, 21000 µM (≈ 9210 µg/mL) and 10 µL/min/1e6 cells.
In data set [1], `CN(C)c1ccc(Nc2c(NCCCCCC(=O)NO)c(=O)c2=O)cc1` returned a solubility at 24 h, 100 µM of 12 µM (≈ 4.32 µg/mL). Also, the pKi in data set [2] was 9.04. The same molecule gave a negative-log EC50 (pEC50) in data set [3] of 8.21. The molecule further returned a solubility at 24 h in data set [4] of 1400 µM (≈ 505 µg/mL). Further, the hepatocyte CLint at 1 µM in data set [5] was below 5 µL/min/1e6 cells.
Molecule `COc1cc(Nc2c(NCCCCCC(=O)NO)c(=O)c2=O)ccc1N(C)C` showed a solubility at 24 h, 100 µM in data set [1] of 93 µM (≈ 36.3 µg/mL). The pKi in data set [2] is 9.30. The pEC50 in data set [3] is 6.54. For the same molecule, in data set [4], the solubility at 24 h was 2600 µM (≈ 1020 µg/mL). For the same molecule, the hepatocyte CLint at 1 µM in data set [5] was below 5 µL/min/1e6 cells.
`Cc1cc2ccc(Nc3c(NCCCCCC(=O)NO)c(=O)c3=O)cc2[nH]1` displayed a solubility at 24 h, 100 µM in data set [1] of 4.4 µM (≈ 1.63 µg/mL). For the same molecule, the negative-log Ki (pKi) in data set [2] was 9.57. This molecule gave a pEC50 in data set [3] of 7.55. In data set [4], the concentration in solution (solubility at 24 h) was 9100 µM (≈ 3370 µg/mL). Further, the hepatocyte CLint at 1 µM in data set [5] was below 5 µL/min/1e6 cells.
The like results for `Cc1ccc(Nc2c(NC(C)CCCCC(=O)NO)c(=O)c2=O)cc1` (racemic) were, in that order, 83 µM (≈ 28.7 µg/mL), 10.01, 8.25, 4900 µM (≈ 1690 µg/mL) and below 6.5 µL/min/1e6 cells.
For `O=C(CCCCCCC(=O)Nc1ccccc1)NO` [VORINOSTAT], the solubility at 24 h, 100 µM in data set [1] stood at 87 µM (≈ 23 µg/mL). The molecule further showed a solubility in data set [4] (24 h) of 32000 µM (≈ 8460 µg/mL). Besides, in data set [5], the hepatocyte CLint at 1 µM was below 5 µL/min/1e6 cells.
The molecule `CCC(CCCCC(=O)NO)Nc1c(Nc2ccc(C(F)(F)F)cc2)c(=O)c1=O` (racemic) gave a solubility at 24 h, 100 µM in data set [1] of 6.6 µM (≈ 2.73 µg/mL). Besides, the pKi in data set [2] was 9.29. This molecule had a pEC50 in data set [3] of 7.68. Moreover, in data set [4], the solubility at 24 h was 25000 µM (≈ 10300 µg/mL). In addition, the hepatocyte CLint at 1 µM in data set [5] came out at 25 µL/min/1e6 cells.
In the case of `Cc1ccc([C@H](C)Nc2c(NCCCCCC(=O)NO)c(=O)c2=O)cc1`, the solubility at 24 h, 100 µM in data set [1] stood at 76 µM (≈ 27.3 µg/mL). In data set [2], the pKi was 8.64. The pEC50 in data set [3] was 6.89. The molecule further gave a solubility at 24 h in data set [4] of 5600 µM (≈ 2010 µg/mL). Moreover, the hepatocyte CLint at 1 µM in data set [5] was below 5 µL/min/1e6 cells.
The like results for `CC(C)(Nc1c(NCCCCCC(=O)NO)c(=O)c1=O)c1ccccc1` were, in that order, 88 µM (≈ 31.6 µg/mL), 7.96, 5.96, above 84000 µM and below 5 µL/min/1e6 cells.
`CC(CCCCC(=O)NO)Nc1c(Nc2ccccc2)c(=O)c1=O` (racemic): the solubility at 24 h, 100 µM in data set [1] stood at 93 µM (≈ 30.8 µg/mL). The pKi in data set [2] was 9.16. In data set [3], this molecule gave a pEC50 of 7.49. In data set [4], this molecule had a solubility at 24 h of 46000 µM (≈ 15200 µg/mL). Besides, the hepatocyte CLint at 1 µM in data set [5] was below 5 µL/min/1e6 cells.
The like results for `COc1ccc(Nc2c(NC(C)CCCCC(=O)NO)c(=O)c2=O)cc1` (racemic) were, in that order, 85 µM (≈ 30.7 µg/mL), 9.57, 7.92, 11000 µM (≈ 3980 µg/mL) and 7.1 µL/min/1e6 cells.
Turning to `Cc1ccccc1[C@H](C)Nc1c(NCCCCCC(=O)NO)c(=O)c1=O`, the solubility at 24 h, 100 µM in data set [1] came to 92 µM (≈ 33.1 µg/mL). Moreover, in data set [2], the negative logarithm of the Ki (pKi) is 8.64. This molecule also had a pEC50 in data set [3] of 6.25. Also, the solubility at 24 h in data set [4] came to 47000 µM (≈ 16900 µg/mL). For the same molecule, the hepatocyte CLint at 1 µM in data set [5] is below 5 µL/min/1e6 cells.
The like results for `O=C(CCCCCNc1c(NC2CCCCC2)c(=O)c1=O)NO` were, in that order, 91 µM (≈ 29.4 µg/mL), 8.85, 7.08, 8700 µM (≈ 2810 µg/mL) and below 5 µL/min/1e6 cells.
Take `Cc1ccc(Nc2c(NCCCCCC(=O)NO)c(=O)c2=O)cc1`: in data set [1], the solubility at 24 h, 100 µM came out at 8.1 µM (≈ 2.68 µg/mL). For the same molecule, in data set [2], the pKi is 10.24. The same molecule had a pEC50 in data set [3] of 8.77. Moreover, the solubility at 24 h in data set [4] was found to be 1800 µM (≈ 596 µg/mL). The hepatocyte CLint at 1 µM in data set [5] came out at 7.2 µL/min/1e6 cells.
